Measured values reported in patent publication US20040138462A1, “Aminoalcohol derivatives” (priority 2001, published 2004).

What was measured:
[1] = test system: increase in intravesical pressure induced by carbachol in anesthetized dog; assay: Effect on the increase in intravesical pressure induced by carbachol in anesthetized dog; assay type: in vivo, Beagle dogs; conditions: intraduodenal administration
Protocol: Effect on the increase in intravesical pressure induced by carbachol in anesthetized dog
Female Beagle dogs weighing 8.0-15.0 kg were fasted for 24 hours and maintained under halothane anesthesia. A 12F Foley catheter was lubricated with water soluble jelly, inserted into the urethral orifice and advanced approximately 10 cm until the balloon tip was placed well inside the bladder. The balloon was then inflated with 5 ml of room air and catheter slowly withdrawn just part the first resistance that is felt at the bladder neck. Urine was completely drained out through the catheter, and 30 ml of biological saline was infused. The catheter was connected to pressure transducer, and intravesical pressure was continuously recorded. Intraduodenal administration of test compound (I) inhibited carbachol (1.8 μg/kg)-induced increase in intravesical pressure (IVP).

Row | melting point [°C] | Compound | % inhibition of carbachol-induced increase in IVP ([1]; 0.32 mg/kg, female Beagle dogs under halothane anesthesia, carbachol 1.8 μg/kg) [%] | carbachol (1.8 μg/kg)-induced increase in intravesical pressure (IVP) ([1]; anesthetized female Beagle dogs)
1 | 198 to 200 | CCOC(=O)COc1ccc(S(=O)(=O)c2ccc(CCNC[C@H](O)c3cccc(Cl)c3)cc2)cc1.Cl | – | –
2 | – | O=S(=O)(c1ccccc1)c1ccc(C[C@@H](CO)NC[C@H](O)COc2ccccc2)cc1 [Test Compound (1), (2S)-2-[((2S)-2-Hydroxy-3-phenoxypropyl)amino]-3-[4-(phenylsulfonyl)phenyl]-1-propanol] | 30 | inhibited
